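Method: 48-hour compound exposure of cells in 96-well plates, five concentrations, linear interpolation of endpoints. Here, GI50 denotes the concentration required for 50% inhibition of growth. At the TGI there is no net growth.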
Key:
Assay in all cases: NCI tumour cell line growth inhibition, 48 h
MCF7 breast = system: MCF7 breast
M14 melanoma = system: M14 melanoma
HS 578T breast = system: HS 578T breast
T-47D breast = system: T-47D breast
A498 renal = system: A498 renal
NCI-H23 lung = system: NCI-H23 lung
RPMI-8226 leukemia = system: RPMI-8226 leukemia
TK-10 renal = system: TK-10 renal
786-0 renal = system: 786-0 renal
K-562 leukemia = system: K-562 leukemia
MDA-MB-231 breast = system: MDA-MB-231 breast
NCI-H226 lung = system: NCI-H226 lung
SF-268 CNS = system: SF-268 CNS
MALME-3M melanoma = system: MALME-3M melanoma
NCI-H460 lung = system: NCI-H460 lung
CAKI-1 renal = system: CAKI-1 renal
U251 CNS = system: U251 CNS
UACC-257 melanoma = system: UACC-257 melanoma
HOP-62 NSCLC = system: HOP-62 NSCLC
KM12 colon = system: KM12 colon
CCRF-CEM leukemia = system: CCRF-CEM leukemia
OVCAR-8 ovarian = system: OVCAR-8 ovarian
SK-MEL-28 melanoma = system: SK-MEL-28 melanoma
NCI/ADR-RES ovarian = system: NCI/ADR-RES ovarian
SF-295 CNS = system: SF-295 CNS
HCT-15 colon = system: HCT-15 colon
SW-620 colon = system: SW-620 colon
OVCAR-4 ovarian = system: OVCAR-4 ovarian
HL-60(TB) leukemia = system: HL-60(TB) leukemia
SR leukemia = system: SR leukemia
A549 NSCLC = system: A549 NSCLC
SK-MEL-5 melanoma = system: SK-MEL-5 melanoma
IGROV1 ovarian = system: IGROV1 ovarian
UO-31 renal = system: UO-31 renal
PC-3 prostate = system: PC-3 prostate
HT29 colon = system: HT29 colon
MOLT-4 leukemia = system: MOLT-4 leukemia
RXF 393 renal = system: RXF 393 renal
OVCAR-5 ovarian = system: OVCAR-5 ovarian
SK-MEL-2 melanoma = system: SK-MEL-2 melanoma
NCI-H522 lung = system: NCI-H522 lung
UACC-62 melanoma = system: UACC-62 melanoma
BT-549 breast = system: BT-549 breast
EKVX NSCLC = system: EKVX NSCLC
SNB-19 CNS = system: SNB-19 CNS
HCT-116 colon = system: HCT-116 colon
MDA-MB-435 = system: MDA-MB-435
SN12C renal = system: SN12C renal
ACHN renal = system: ACHN renal
COLO 205 colon = system: COLO 205 colon
DU-145 prostate = system: DU-145 prostate
LOX IMVI melanoma = system: LOX IMVI melanoma
SF-539 CNS = system: SF-539 CNS
OVCAR-3 ovarian = system: OVCAR-3 ovarian
SK-OV-3 ovarian = system: SK-OV-3 ovarian

Q: With `CC(C)(C)OC(=O)N(CCCN(CCn1c2c(c3ccccc3c1=O)C(=O)c1ccccc1-2)C(=O)OC(C)(C)C)CCn1c2c(c3ccccc3c1=O)C(=O)c1ccccc1-2` as the compound, how does the GI50 (MCF7 breast) read?
A: > 50 µM

Q: What about the TGI (MCF7 breast) of the same compound?
A: > 50 µM

Q: And the GI50 (M14 melanoma)?
A: > 50 µM

Q: And the TGI (M14 melanoma)?
A: > 50 µM

Q: And the GI50 (HS 578T breast)?
A: 41.1 µM

Q: And the TGI (HS 578T breast)?
A: > 50 µM

Q: What about the GI50 (T-47D breast) of the same compound?
A: > 50 µM

Q: And the TGI (T-47D breast)?
A: > 50 µM

Q: What about the GI50 (A498 renal) of the same compound?
A: > 50 µM

Q: What about the TGI (A498 renal) of the same compound?
A: > 50 µM

Q: And the GI50 (NCI-H23 lung)?
A: > 50 µM

Q: What about the TGI (NCI-H23 lung) of the same compound?
A: > 50 µM

Q: And the GI50 (RPMI-8226 leukemia)?
A: 7.21 µM

Q: And the TGI (RPMI-8226 leukemia)?
A: 48.6 µM

Q: What about the GI50 (TK-10 renal) of the same compound?
A: > 50 µM

Q: And the TGI (TK-10 renal)?
A: > 50 µM

Q: And the GI50 (786-0 renal)?
A: 16.5 µM

Q: And the TGI (786-0 renal)?
A: > 50 µM

Q: What about the GI50 (K-562 leukemia) of the same compound?
A: 12.4 µM

Q: And the TGI (K-562 leukemia)?
A: 46 µM

Q: What about the GI50 (MDA-MB-231 breast) of the same compound?
A: > 50 µM

Q: And the TGI (MDA-MB-231 breast)?
A: > 50 µM

Q: What about the GI50 (NCI-H226 lung) of the same compound?
A: > 50 µM

Q: What about the TGI (NCI-H226 lung) of the same compound?
A: > 50 µM

Q: What about the GI50 (SF-268 CNS) of the same compound?
A: 28.2 µM

Q: What about the TGI (SF-268 CNS) of the same compound?
A: > 50 µM

Q: What about the GI50 (MALME-3M melanoma) of the same compound?
A: > 50 µM

Q: What about the TGI (MALME-3M melanoma) of the same compound?
A: > 50 µM

Q: And the GI50 (NCI-H460 lung)?
A: 49.7 µM

Q: And the TGI (NCI-H460 lung)?
A: > 50 µM

Q: What about the GI50 (CAKI-1 renal) of the same compound?
A: > 50 µM

Q: And the TGI (CAKI-1 renal)?
A: > 50 µM

Q: And the GI50 (U251 CNS)?
A: 15.2 µM

Q: What about the TGI (U251 CNS) of the same compound?
A: > 50 µM

Q: What about the GI50 (UACC-257 melanoma) of the same compound?
A: > 50 µM

Q: And the TGI (UACC-257 melanoma)?
A: > 50 µM

Q: What about the GI50 (HOP-62 NSCLC) of the same compound?
A: 22.3 µM

Q: What about the TGI (HOP-62 NSCLC) of the same compound?
A: > 50 µM

Q: And the GI50 (KM12 colon)?
A: > 50 µM

Q: And the TGI (KM12 colon)?
A: > 50 µM

Q: And the GI50 (CCRF-CEM leukemia)?
A: 13.3 µM

Q: What about the TGI (CCRF-CEM leukemia) of the same compound?
A: > 50 µM

Q: What about the GI50 (OVCAR-8 ovarian) of the same compound?
A: 34.9 µM

Q: What about the TGI (OVCAR-8 ovarian) of the same compound?
A: > 50 µM

Q: And the GI50 (SK-MEL-28 melanoma)?
A: > 50 µM

Q: What about the TGI (SK-MEL-28 melanoma) of the same compound?
A: > 50 µM

Q: What about the GI50 (NCI/ADR-RES ovarian) of the same compound?
A: > 50 µM

Q: And the TGI (NCI/ADR-RES ovarian)?
A: > 50 µM

Q: And the GI50 (SF-295 CNS)?
A: 15.3 µM

Q: And the TGI (SF-295 CNS)?
A: > 50 µM

Q: And the GI50 (HCT-15 colon)?
A: 31.1 µM

Q: What about the TGI (HCT-15 colon) of the same compound?
A: > 50 µM

Q: And the GI50 (SW-620 colon)?
A: 40.7 µM

Q: And the TGI (SW-620 colon)?
A: > 50 µM

Q: And the GI50 (OVCAR-4 ovarian)?
A: > 50 µM

Q: And the TGI (OVCAR-4 ovarian)?
A: > 50 µM

Q: And the GI50 (HL-60(TB) leukemia)?
A: 14.1 µM

Q: What about the TGI (HL-60(TB) leukemia) of the same compound?
A: > 50 µM

Q: And the GI50 (SR leukemia)?
A: 2.07 µM

Q: And the TGI (SR leukemia)?
A: 8.87 µM

Q: And the GI50 (A549 NSCLC)?
A: > 50 µM

Q: And the TGI (A549 NSCLC)?
A: > 50 µM

Q: What about the GI50 (SK-MEL-5 melanoma) of the same compound?
A: > 50 µM

Q: And the TGI (SK-MEL-5 melanoma)?
A: > 50 µM

Q: What about the GI50 (IGROV1 ovarian) of the same compound?
A: 34.5 µM

Q: What about the TGI (IGROV1 ovarian) of the same compound?
A: > 50 µM

Q: What about the GI50 (UO-31 renal) of the same compound?
A: > 50 µM

Q: What about the TGI (UO-31 renal) of the same compound?
A: > 50 µM

Q: And the GI50 (PC-3 prostate)?
A: > 50 µM

Q: What about the TGI (PC-3 prostate) of the same compound?
A: > 50 µM

Q: What about the GI50 (HT29 colon) of the same compound?
A: > 50 µM

Q: And the TGI (HT29 colon)?
A: > 50 µM

Q: And the GI50 (MOLT-4 leukemia)?
A: 6.46 µM

Q: What about the TGI (MOLT-4 leukemia) of the same compound?
A: 16 µM

Q: And the GI50 (RXF 393 renal)?
A: 25.9 µM

Q: What about the TGI (RXF 393 renal) of the same compound?
A: > 50 µM

Q: And the GI50 (OVCAR-5 ovarian)?
A: > 50 µM

Q: What about the TGI (OVCAR-5 ovarian) of the same compound?
A: > 50 µM

Q: What about the GI50 (SK-MEL-2 melanoma) of the same compound?
A: > 50 µM

Q: And the TGI (SK-MEL-2 melanoma)?
A: > 50 µM

Q: What about the GI50 (NCI-H522 lung) of the same compound?
A: 47.6 µM

Q: And the TGI (NCI-H522 lung)?
A: > 50 µM

Q: And the GI50 (UACC-62 melanoma)?
A: > 50 µM

Q: What about the TGI (UACC-62 melanoma) of the same compound?
A: > 50 µM

Q: And the GI50 (BT-549 breast)?
A: > 50 µM

Q: And the TGI (BT-549 breast)?
A: > 50 µM

Q: What about the GI50 (EKVX NSCLC) of the same compound?
A: > 50 µM

Q: And the TGI (EKVX NSCLC)?
A: > 50 µM

Q: And the GI50 (SNB-19 CNS)?
A: > 50 µM

Q: And the TGI (SNB-19 CNS)?
A: > 50 µM

Q: What about the GI50 (HCT-116 colon) of the same compound?
A: 22.7 µM

Q: And the TGI (HCT-116 colon)?
A: > 50 µM

Q: What about the GI50 (MDA-MB-435) of the same compound?
A: > 50 µM

Q: And the TGI (MDA-MB-435)?
A: > 50 µM

Q: What about the GI50 (SN12C renal) of the same compound?
A: > 50 µM

Q: And the TGI (SN12C renal)?
A: > 50 µM

Q: And the GI50 (ACHN renal)?
A: 14.5 µM

Q: What about the TGI (ACHN renal) of the same compound?
A: > 50 µM

Q: What about the GI50 (COLO 205 colon) of the same compound?
A: > 50 µM

Q: And the TGI (COLO 205 colon)?
A: > 50 µM

Q: And the GI50 (DU-145 prostate)?
A: > 50 µM

Q: And the TGI (DU-145 prostate)?
A: > 50 µM

Q: And the GI50 (LOX IMVI melanoma)?
A: > 50 µM

Q: What about the TGI (LOX IMVI melanoma) of the same compound?
A: > 50 µM

Q: What about the GI50 (SF-539 CNS) of the same compound?
A: > 50 µM

Q: And the TGI (SF-539 CNS)?
A: > 50 µM

Q: What about the GI50 (OVCAR-3 ovarian) of the same compound?
A: 21.2 µM

Q: What about the TGI (OVCAR-3 ovarian) of the same compound?
A: > 50 µM

Q: And the GI50 (SK-OV-3 ovarian)?
A: > 50 µM

Q: What about the TGI (SK-OV-3 ovarian) of the same compound?
A: > 50 µM
